The series in a line: Solubility of material samples covered with tr-1233zd or cis-1233zd in vials (Examples 8-13). The conditions noted are these: for Amount of heparin dissolved: remained clear overnight. The source says:
Test samples of commercial acrylic plastic sheet cut into ¼″×2″ piece were placed into 20 cc vials with septum screw cap. Solvents (tr-1233zd & cis-1233zd) were slowly added by a syringe to cover the entire plastic sample inside the vial. The purpose was to observe if any degradation happens to the plastic.
Test samples of commercial high impact styrene plastic sheet cut into ¼″×2″ piece were placed into 20 cc vials with septum screw cap. Solvents (tr-1233zd & cis-1233zd) were slowly added by a syringe to cover the entire plastic sample inside the vial. The purpose was to observe if any degradation happens to the plastic.
Test samples of commercial acrylonitrile-butadiene-styrene (ABS) sheet cut into ¼″×2″ piece were placed into 20 cc vials with septum screw cap. Solvents (tr-1233zd & cis-1233zd) were slowly added by a syringe to cover the entire plastic sample inside the vial.
The experiment in Example 8 is repeated with commercial polycarbonate material.
The experiment of Example 8 was repeated with commercial Dow Polaroid™ Au-608-B acrylic material. This material is used in various coatings.
The experiment of Example 8 was repeated with blood anti-coagulant material Heparin, which is used as a coating in medical devices.

As for Heparin, the “Solubility / effect of solvent on the material” value is “None of the solvents could dissolve the material”. In addition, for the setting “cis-1233zd with 2 wt % methanol”, the “Amount of heparin dissolved” value was determined as 1.19 wt %. Further, the “Amount of heparin dissolved” value (tr-1233zd with 2 wt % methanol) is on record as 0.794 wt %.
